ChEMBL document CHEMBL5226308, “Amide-Amine Replacement in Indole-2-carboxamides Yields Potent Mycobactericidal Agents with Improved Water Solubility” (ACS Med Chem Lett, 2021)
Calls of active or inactive are those of the source. The rule behind the calls is not given here.

How the values were obtained:
[1] = Ratio of MIC90 for antimycobacterial activity against Mycobacterium tuberculosis H37Rv M47-1 harboring mmpL3 G2098A/A700T mutant to MIC90 for antimycobacterial activity against wild type Mycobacterium tuberculosis H37Rv ATCC 27294; assay type: functional
[2] = Ratio of MIC90 for antimycobacterial activity against Mycobacterium tuberculosis H37Rv M47-3 harboring mmpL3 Ins2128CAG/Ins710Q mutant to MIC90 for antimycobacterial activity against wild type Mycobacterium tuberculosis H37Rv ATCC 27294; assay type: functional
[3] = Ratio of MIC90 for antimycobacterial activity against Mycobacterium tuberculosis H37Rv M16-2 harboring mmpL3 G758A/G253E mutant to MIC90 for antimycobacterial activity against wild type Mycobacterium tuberculosis H37Rv ATCC 27294; assay type: functional
[4] = Ratio of MIC90 for antimycobacterial activity against Mycobacterium tuberculosis H37Rv M47-4 harboring mmpL3 G2041A/V681I mutant to MIC90 for antimycobacterial activity against wild type Mycobacterium tuberculosis H37Rv ATCC 27294; assay type: functional
[5] = Ratio of MIC90 for antimycobacterial activity against Mycobacterium tuberculosis H37Rv M16-5 harboring mmpL3 G758A/G253E mutant to MIC90 for antimycobacterial activity against wild type Mycobacterium tuberculosis H37Rv ATCC 27294; assay type: functional
[6] = Ratio of MIC90 for antimycobacterial activity against Mycobacterium tuberculosis H37Rv M16-4 harboring mmpL3 T2051C/V684A mutant to MIC90 for antimycobacterial activity against wild type Mycobacterium tuberculosis H37Rv ATCC 27294; assay type: functional
[7] = Ratio of MIC90 for antimycobacterial activity against Mycobacterium tuberculosis H37Rv M16-1 harboring mmpL3 T854C/V258A mutant to MIC90 for antimycobacterial activity against wild type Mycobacterium tuberculosis H37Rv ATCC 27294; assay type: functional
[8] = Ratio of MIC90 for antimycobacterial activity against Mycobacterium tuberculosis H37Rv M33-1 harboring mmpL3 G1927A/V643M mutant to MIC90 for antimycobacterial activity against wild type Mycobacterium tuberculosis H37Rv ATCC 27294; assay type: functional
[9] = Ratio of MIC90 for antimycobacterial activity against Mycobacterium tuberculosis H37Rv M47-2 harboring mmpL3 A730T/I244F mutant to MIC90 for antimycobacterial activity against wild type Mycobacterium tuberculosis H37Rv ATCC 27294; assay type: functional
[10] = Ratio of MIC90 for antimycobacterial activity against Mycobacterium tuberculosis H37Rv M16-3 harboring mmpL3 T2051G/V684G mutant to MIC90 for antimycobacterial activity against wild type Mycobacterium tuberculosis H37Rv ATCC 27294; assay type: functional
[11] = test system: Mycobacterium tuberculosis; test: Antimycobacterial activity against Mycobacterium tuberculosis H37Rv M33-1 harboring V643M mutant assessed as inhibition of bacterial growth incubated for 7 days by broth dilution method; assay type: functional, organism-based; details: time 7.0 day
[12] = test system: Mycobacterium tuberculosis; test: Antimycobacterial activity against Mycobacterium tuberculosis H37Rv M47-1 harboring A700T mutant assessed as inhibition of bacterial growth incubated for 7 days by broth dilution method; assay type: functional, organism-based; details: time 7.0 day
[13] = test system: Mycobacterium tuberculosis; test: Antimycobacterial activity against Mycobacterium tuberculosis H37Rv M47-4 harboring V681I mutant assessed as inhibition of bacterial growth incubated for 7 days by broth dilution method; assay type: functional, organism-based; details: time 7.0 day
[14] = test system: Mycobacterium tuberculosis; test: Antimycobacterial activity against Mycobacterium tuberculosis H37Rv M47-3 harboring Ins710Q mutant assessed as inhibition of bacterial growth incubated for 7 days by broth dilution method; assay type: functional, organism-based; details: time 7.0 day
[15] = test system: Mycobacterium tuberculosis; test: Antimycobacterial activity against Mycobacterium tuberculosis H37Rv M16-4 harboring V684A mutant assessed as inhibition of bacterial growth incubated for 7 days by broth dilution method; assay type: functional, organism-based; details: time 7.0 day
[16] = test system: Mycobacterium tuberculosis; test: Antimycobacterial activity against Mycobacterium tuberculosis H37Rv M16-1 harboring V285A mutant assessed as inhibition of bacterial growth incubated for 7 days by broth dilution method; assay type: functional, organism-based; details: time 7.0 day
[17] = test system: Mycobacterium tuberculosis; test: Antimycobacterial activity against Mycobacterium tuberculosis H37Rv M47-2 harboring I244F mutant assessed as inhibition of bacterial growth incubated for 7 days by broth dilution method; assay type: functional, organism-based; details: time 7.0 day
[18] = test system: Mycobacterium tuberculosis; test: Antimycobacterial activity against Mycobacterium tuberculosis H37Rv M16-3 harboring V684G mutant assessed as inhibition of bacterial growth incubated for 7 days by broth dilution method; assay type: functional, organism-based; details: time 7.0 day
[19] = test system: Mycobacterium tuberculosis; test: Antimycobacterial activity against Mycobacterium tuberculosis H37Rv M16-5 harboring G253E mutant assessed as inhibition of bacterial growth incubated for 7 days by broth dilution method; assay type: functional, organism-based; details: time 7.0 day

Row | SMILES | Ratio [1] | Ratio [2] | Ratio [3] | Ratio [4] | Ratio [5] | Ratio [6] | Ratio [7] | Ratio [8] | Ratio [9] | Ratio [10] | Activity [11] | Activity [12] | Activity [13] | Activity [14] | Activity [15] | Activity [16] | Activity [17] | Activity [18] | Activity [19]
1 | O=C(NC1CCCCCCC1)c1cc2ccc(C(F)(F)F)cc2[nH]1 | 5 | 5 | 5 | 5 | 5 | 5 | 5 | 5 | 5 | 5 | – | – | – | – | – | – | – | – | –
2 | FC(F)(F)c1ccc2cc(CNC3CCCCCCC3)[nH]c2c1 | 5 | 5 | 5 | 5 | 5 | 5 | 5 | 5 | 5 | 5 | – | – | – | – | – | – | – | – | –
3 | c1ccc2sc(CNC3CCCCCCC3)cc2c1 | 5 | 5 | 5 | 5 | 5 | 5 | 5 | 5 | 5 | 5 | – | – | – | – | – | – | – | – | –
4 | O=C(NC1CCCCCCC1)c1cc2ccccc2[se]1 | – | – | – | – | – | – | – | – | – | – | inactive | inactive | inactive | inactive | inactive | inactive | inactive | inactive | inactive
5 | O=C(NC1CCCCCCC1)c1cc2ccccc2s1 | – | – | – | – | – | – | – | – | – | – | inactive | inactive | inactive | inactive | inactive | inactive | inactive | inactive | inactive
6 | c1ccc2[se]c(CNC3CCCCCCC3)cc2c1 | – | – | – | – | – | – | – | – | – | – | inactive | inactive | inactive | inactive | inactive | inactive | inactive | inactive | inactive
